Values of other authors in article PMC4744679 (Drug Testing and Analysis, 2015).

How the values were obtained:
[1] = rats, orally administered, 24 and 48 h after injection
[2] = 0.5–3 h of observation
[3] = for Primary accumulation: inner ear, brain, kidney and liver examined
[4] = mature teratoma
[5] = murine, single intraperitoneal injection

For `CC(=O)[O-].CC(=O)[O-].N.NC12CC3CC(CC(C3)C1)C2.[Cl-].[Cl-].[Pt+4]` [(OC‐6‐43)‐bis (acetato) (1‐adamantylamine) amminedichloroplatinum (IV)], the Main accumulation organs [1] is listed as “liver, kidneys and spleen”.

For `CC(C)c1cc(C(=O)[O-])c([O-])c(C(C)C)c1.NC1CCCCC1N.[Pt+2]` [Saliplatin, cis‐3,5‐diisopropylsalylic cyclohexano‐diaminoplatinum (II)], the Primary accumulation sites [2] is given as “spleen, liver, and kidneys”.

For `N.N.O=C([O-])C1(C(=O)[O-])CCC1.[Pt+2]` [carboplatin, cis‐diammine(1,1‐cyclobutanedicarboxylato)platinum (II)], the Main deposition is listed as “kidney”, the “Distribution into brain and inner ear” value [3] is listed as “much less distributed into brain and inner ear” and the Primary accumulation [3] is listed as “kidney and liver”.

In the case of `N.N.[Cl][Pt][Cl]` [cisplatin, cis‐dichlorodiammineplatinum (II)], the Main deposition is given as “kidney”, the Primary accumulation [3] is given as “kidney and liver” and the “Time after administration at which platinum is detected in the tissue” value [4] is given as “more than 7 years”. The Main platinum accumulation [5] was “kidneys and, secondly, in liver”.
